Laboratory results: patent US6825230B2, “Spiro and dispiro 1,2,4-trixolane antimalarials” (Medicines for Malaria Venture MMV, priority 2002, dated 2004)
≈ marks a conversion by molar mass, not a printed value. Counter-ions that a name gives are not always drawn. Like-named read-outs stand apart in the source and are kept apart here.

Assays:
[1] = tested on: ANKA strain of P. berghei; test: Single dose STI in vivo screen in infected mice; parameters: species or system Plasmodium berghei; details: for Survival (days) 10 mg/kg po: single 10 mg/kg po in 3% ethanol and 7% Tween 80; for Survival (days) 10 mg/kg po / Survival (days) 10 mg/kg SSV po / Survival (days) 10 mg/kg sc: untreated 6-7 days; for Activity (%) 10 mg/kg po: single 10 mg/kg po in 3% ethanol and 7% Tween 80 on day 1 post-infection; for Activity (%) 10 mg/kg po / Activity (%) 10 mg/kg SSV po / Activity (%) 10 mg/kg sc: percent reduction in parasitemia on day 3; for Survival (days) 10 mg/kg SSV po: single 10 mg/kg po in SSV; for Activity (%) 10 mg/kg SSV po: single 10 mg/kg po in standard suspending vehicle (SSV) on day 1 post-infection; for Survival (days) 10 mg/kg sc: single 10 mg/kg sc in 3% ethanol and 7% Tween 80; for Activity (%) 10 mg/kg sc: single 10 mg/kg sc in 3% ethanol and 7% Tween 80 on day 1 post-infection
[2] = tested on: chloroquine-sensitive NF54 strain of P. falciparum; test: In vitro antimalarial semiautomated microdilution assay ([3H]-hypoxanthine incorporation), NF54 strain; type: cell-based, Plasmodium falciparum; details: Plasmodium falciparum
In short: (§1)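 IC50 comes from Logit regression of [3H]-hypoxanthine incorporation data. Intraerythrocytic P. falciparum taken from asynchronous stock cultures is exposed to OZ compounds in a semiautomated microdilution format.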

[3] = tested on: ANKA strain of Plasmodium berghei; test: Single dose ED50/ED90/ED99 determination in infected mice; type: in vivo
Experimental: In the single dose ED50/ED98/ED99 determinations, Moro SPF or NMRI mice (group of three) infected with the ANKA strain of Plasmodium berghei were treated on day one post-infection. […] The SSV consists of 0.5% w/v CMC, 0.5% v/v benzyl alcohol, 0.4% v/v Tween 80, and 0.9% w/v sodium chloride in water. Antimalarial activity was measured by percent reduction in parasitemia on day three post-infection. The ED50/ED90 values were calculated by nonlinear fitting.
The ED50, ED90, and ED99 values were calculated by non-linear fitting with statistical program and were expressed in mg/kg.

[4] = tested on: chloroquine-resistant K1 strain of P. falciparum; test: In vitro antimalarial semiautomated microdilution assay ([3H]-hypoxanthine incorporation), K1 strain; type: cell-based, Plasmodium falciparum; details: Plasmodium falciparum
In short: as §1

[5] = tested on: Schistosoma mansoni adult worms (49-day-old); test: Effect on adult schistosomes (49-day-old) in infected mice; type: in vivo; details: for % reduction of adult worms growth at day 49 after per os application of 400 mg/kg, TWR (%) / Adult worms day 49, per os 400 mg/kg, DEAD WORM (%): single 400 mg/kg per os
Experimental: Mice were infected with 100 Schistosoma mansoni cercariae on day 49 post-treatment. Each group was treated per os with OZ compounds at single doses of 200, 400, and 600 mg/kg. Untreated mice served as the control. All groups were killed 4 weeks after treatment and the liver and intestine were removed and separated. The liver and intestine were compressed and alive male and female worms could be seen and counted.

[6] = tested on: Schistosoma mansoni 21-day-old schistosomules; test: Effect on 21-day-old schistosomules in infected mice; type: in vivo; details: for % reduction of schistosomule growth at day 21 after per os application of 200 mg/kg, FWR (%): female worm reduction rate
Experimental: Mice were infected with 100 Schistosoma mansoni cercariae on day 21 post-treatment. Each group was treated per os with trioxolanes at a single dose of 200 mg/kg. […] All groups were killed 4 weeks after treatment and the liver and intestine were removed and separated. The liver and intestine were compressed and alive male and female worms could be seen and counted. The effect of the compounds was evaluated by mean total and female worm burden.

[7] = NF54, 72 h, read-out: IC50 (ng/ml) NF54, chloroquine-sensitive NF54 strain, 72 h incubation
[8] = Plasmodium berghei, po, single dose po in SSV on day 1 post-infection, parasitemia day 3, nonlinear fitting
[9] = single dose po in SSV on day 1 post-infection, parasitemia day 3, nonlinear fitting
[10] = K1, 72 h, read-out: IC50 (ng/ml) K1, chloroquine-resistant K1 strain, 72 h incubation
[11] = 49-day-old adults, total worm reduction rate
[12] = percentage of dead worm in the liver
[13] = single 200 mg/kg per os, 21-day-old schistosomules
[14] = Plasmodium berghei, single dose po in SSV on day 1 post-infection, parasitemia day 3, nonlinear fitting, read-out: ED50

Row | SMILES | Survival (days) 10 mg/kg po [1] | Activity (%) 10 mg/kg po [1] | Survival (days) 10 mg/kg SSV po [1] | Activity (%) 10 mg/kg SSV po [1] | Survival (days) 10 mg/kg sc [1] | Activity (%) 10 mg/kg sc [1] | IC50 [2, 7] | ED50 [3, 8] | ED90 [3, 9] | ED99 [3, 9] | IC50 [4, 10] | % reduction of adult worms growth at day 49 after per os application of 400 mg/kg, TWR (%) [5, 11] | Adult worms day 49, per os 400 mg/kg, DEAD WORM (%) [5, 12] | % reduction of schistosomule growth at day 21 after per os application of 200 mg/kg, FWR (%) [6, 13] | other results
1 | CN1CCN(C(=O)C[C@H]2CC[C@]3(CC2)OOC2(O3)C3CC4CC(C3)CC2C4)CC1 (stereo partly shown) [OZ227] | 8.3 days | 99.68% | 9.3 days | 99.90% | 10.7 days | 99.84% | 0.2 ng/mL (≈ 0.494 nM) | 2.3 mg/kg | 4.0 mg/kg | 6.2 mg/kg | 0.2 ng/mL (≈ 0.494 nM) |  |  |  | 
2 | COCC(=O)N1CCC2(CC1)OOC1(O2)C2CC3CC(C2)CC1C3 (stereo not shown) [OZ113, Adamantane-2-spiro-3′-8′-methoxyacetyl-1′,2′,4′-trioxa-8′-azaspiro[4.5]decane] | 7.3 days | 92% | 8.0 days | 96% | 7.3 days | 89% | 0.2 ng/mL (≈ 0.593 nM) | 3.6 mg/kg | 9.0 mg/kg | 19 mg/kg | 0.95 ng/mL (≈ 2.82 nM) |  |  |  | 
3 | CC(C)(O)C[C@H]1CC[C@]2(CC1)OOC1(O2)C2CC3CC(C2)CC1C3 (stereo partly shown) [OZ205] | 10.0 days | 99.96% | 8.7 days | 99.94% | 9.7 days | 99.96% | 2 ng/mL (≈ 5.94 nM) | 1.6 mg/kg | 3.3 mg/kg | 6.0 mg/kg | 1.5 ng/mL (≈ 4.46 nM) | 0% | 12% | 83% | % reduction of schistosomule growth at day 21 after per os application of 200 mg/kg, TWR (%) ([6]; single 200 mg/kg per os, 21-day-old schistosomules, total worm reduction rate): 84%
4 | c1ccc(C2CCC3(CC2)OOC2(O3)C3CC4CC(C3)CC2C4)cc1 (stereo not shown) [OZ27] |  |  |  |  |  |  |  |  | 5.7 mg/kg | 9.9 mg/kg |  | 20% | 10% | 58% | % reduction of schistosomule growth at day 21 after per os application of 200 mg/kg, TWR (%) ([6]; po, 200 mg/kg, 504 h): 63%; ED50 [3, 14]: 2.9 mg/kg
5 | c1ncn(C[C@H]2CC[C@]3(CC2)OOC2(O3)C3CC4CC(C3)CC2C4)n1 (stereo partly drawn) [OZ235, cis-Adamantane-2-spiro-3′-8′-(1′H-1′,2′,4′-triazol-1′-ylmethyl)-1′,2′,4-trioxaspiro[4.5]decane mesylate] |  |  |  |  |  |  | 2 ng/mL |  | 7.1 mg/kg | 11 mg/kg | 1 ng/mL |  |  |  | Survival (days) 10 mg/kg po ([1]; 10 mg/kg): 8.7 days; Activity (%) 10 mg/kg po ([1]; 10 mg/kg): 99.92%; Survival (days) 10 mg/kg SSV po ([1]; 10 mg/kg): 9.0 days; Activity (%) 10 mg/kg SSV po ([1]; 10 mg/kg): 99.97%; Survival (days) 10 mg/kg sc ([1]; 10 mg/kg): 8.0 days; Activity (%) 10 mg/kg sc ([1]; 10 mg/kg): 97%; ED50 [3, 9]: 4.0 mg/kg
6 | c1cn(CC[C@H]2CC[C@]3(CC2)OOC2(O3)C3CC4CC(C3)CC2C4)cn1 (stereo partly shown) [OZ219] | 8.7 days | 99.89% | 8.0 days | 99.82% | 9.3 days | 99.91% |  |  |  | 5.2 mg/kg |  |  |  |  | IC50 ([2]; chloroquine-sensitive NF54 strain, 72 h incubation, read-out: IC50 (ng/ml) NF54): 1.6 ng/mL (≈ 4.46 nM); ED50 [3, 14]: 1.6 mg/kg; ED90 ([3]; po): 3.0 mg/kg; IC50 ([4]; chloroquine-resistant K1 strain, 72 h incubation, read-out: IC50 (ng/ml) K1): 0.85 ng/mL (≈ 2.37 nM)
7 | O=C1CCC2(CC1)OOC1(O2)C2CC3CC(C2)CC1C3 (stereo not shown) [OZ05] |  |  |  |  |  |  |  |  |  | 15 mg/kg |  | 23% | 32% | 88% | % reduction of adult worms growth at day 49 after per os application of 200 mg/kg, TWR (%) ([5]; single 200 mg/kg per os, 49-day-old adults, total worm reduction rate): 46%; Adult worms day 49, per os 200 mg/kg, DEAD WORM (%) ([5]; single 200 mg/kg per os, percentage of dead worm in the liver): 12%; % reduction of adult worms growth at day 49 after per os application of 600 mg/kg, TWR (%) ([5]; single 600 mg/kg per os, 49-day-old adults, total worm reduction rate): 70%; Adult worms day 49, per os 600 mg/kg, DEAD WORM (%) ([5]; single 600 mg/kg per os, percentage of dead worm in the liver): 58%; % reduction of schistosomule growth at day 21 after per os application of 200 mg/kg, TWR (%) ([6]; po, 200 mg/kg, 504 h): 90%; ED90 ([3]; po): 12 mg/kg
